{
  "source": "ChEMBL document CHEMBL1144944",
  "about": "“Discovery of an orally efficacious inhibitor of coagulation factor Xa which incorporates a neutral P1 ligand” (J Med Chem, 2003)",
  "key": {"[1]": {"test": "Ionization constant was determined for the compound", "format": "physicochemical"}, "Coagulation factor X": {"biological_target": "Coagulation factor X (Homo sapiens, UniProt P00742)", "sequence (P00742 41-179 limits assumed)": "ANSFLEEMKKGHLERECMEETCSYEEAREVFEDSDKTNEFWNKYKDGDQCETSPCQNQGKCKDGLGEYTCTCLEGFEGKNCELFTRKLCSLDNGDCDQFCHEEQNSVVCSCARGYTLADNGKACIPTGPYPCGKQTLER", "sequence (P00742 235-488 limits assumed)": "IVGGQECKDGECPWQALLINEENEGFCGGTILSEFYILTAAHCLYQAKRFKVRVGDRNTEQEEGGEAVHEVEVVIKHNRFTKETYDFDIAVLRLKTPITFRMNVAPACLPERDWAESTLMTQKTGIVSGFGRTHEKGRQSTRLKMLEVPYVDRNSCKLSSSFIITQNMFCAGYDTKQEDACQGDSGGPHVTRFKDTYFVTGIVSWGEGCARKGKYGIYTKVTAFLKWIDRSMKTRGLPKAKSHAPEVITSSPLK", "test": "In vitro binding affinity for human Coagulation factor X"}, "Serine protease 1": {"biological_target": "Serine protease 1 (Homo sapiens, UniProt P07477)", "sequence (P07477 whole entry)": "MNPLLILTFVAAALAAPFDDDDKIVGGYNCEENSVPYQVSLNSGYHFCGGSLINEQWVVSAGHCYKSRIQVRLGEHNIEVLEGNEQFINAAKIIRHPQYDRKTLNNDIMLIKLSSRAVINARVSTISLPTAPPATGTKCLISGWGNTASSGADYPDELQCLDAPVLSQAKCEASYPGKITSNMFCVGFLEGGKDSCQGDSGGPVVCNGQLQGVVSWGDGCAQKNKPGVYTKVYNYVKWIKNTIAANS", "test": "Binding affinity towards trypsin"}, "Prothrombin": {"biological_target": "Prothrombin (Homo sapiens, UniProt P00734)", "test": "Binding affinity towards thrombin"}, "Caco-2": {"test_system": "Caco-2", "test": "Compound was tested in vitro for its percent absorption towards CaCo-2 cell monolayer", "format": "functional, cell-based", "conditions": "Homo sapiens"}, "[2]": {"test": "Half life period after peroral administration (10 mpk) was determined in dog", "format": "ADME, organism-based, Canis lupus familiaris", "conditions": "in vivo, po, 10 mg/kg"}, "Homo sapiens": {"organism": "Homo sapiens", "test": "Concentration of inhibitor required to double the activated partial thromboplastin time in human was determined", "format": "functional, organism-based"}, "[3]": {"test": "Oral bioavailability in dog (dose 10 mg/kg)", "format": "ADME, organism-based, Canis lupus familiaris", "conditions": "in vivo"}, "Canis familiaris": {"organism": "Canis familiaris", "test": "Concentration of inhibitor required to double the activated partial thromboplastin time in dog was determined", "format": "functional, organism-based", "conditions": "Canis lupus familiaris"}, "[4]": {"test": "Ionization constant is the negative logarithm of the equilibrium coefficient of the neutral and charged forms of the compound", "format": "physicochemical"}, "[5]": {"test": "Maximum plasma concentration after peroral administration (10 mpk) was determined in dog", "format": "ADME, organism-based, Canis lupus familiaris", "parameters": "route oral", "conditions": "po, 10 mg/kg"}, "[6]": {"test": "Half life period after peroral administration (5 mpk) was determined in dog", "format": "ADME, organism-based, Canis lupus familiaris", "conditions": "in vivo, po, 5 mg/kg"}, "[7]": {"test": "Maximum plasma concentration after peroral administration (5 mpk) was determined in dog", "format": "ADME, organism-based, Canis lupus familiaris", "parameters": "route oral", "conditions": "po, 5 mg/kg"}, "[8]": {"test": "Percent oral bioavailability after peroral administration (5 mpk) was determined in dog", "format": "ADME, organism-based, Canis lupus familiaris", "conditions": "in vivo, 5 mg/kg"}},
  "data": [
    {"smiles": "O=C1CN(S(=O)(=O)c2cc3ccc(Cl)cc3s2)CCN1Cc1cc2[nH]cccc-2n1", "values": [
      {"measurement": "pKa", "setting": "[1]", "value": 6.9},
      {"measurement": "Ki", "setting": "Coagulation factor X", "value": "> 1200", "unit": "nM"},
      {"measurement": "Ki", "setting": "Serine protease 1", "value": "> 2900", "unit": "nM"},
      {"measurement": "Ki", "setting": "Prothrombin", "value": "> 3900", "unit": "nM"}
    ]},
    {"smiles": "Cn1c(CN2CCN(S(=O)(=O)c3cc4ccc(Cl)cc4s3)CC2=O)cc2cnccc21", "values": [
      {"measurement": "Ki", "setting": "Coagulation factor X", "value": 3, "unit": "nM"},
      {"measurement": "Absorption", "setting": "Caco-2", "value": 3, "unit": "%"},
      {"measurement": "Ki", "setting": "Serine protease 1", "value": "> 2900", "unit": "nM"},
      {"measurement": "Ki", "setting": "Prothrombin", "value": "> 3900", "unit": "nM"}
    ]},
    {"smiles": "O=C1CN(S(=O)(=O)c2sc3ccccc3c2Cl)CCN1Cc1cc2c[nH]ccc-2n1", "values": [
      {"measurement": "Ki", "setting": "Coagulation factor X", "value": "> 1200", "unit": "nM"}
    ]},
    {"smiles": "O=C1CN(S(=O)(=O)/C=C/c2ccc(Cl)cc2)CCN1Cc1cc2c[nH]ccc-2n1", "values": [
      {"measurement": "Ki", "setting": "Coagulation factor X", "value": 48, "unit": "nM"}
    ]},
    {"smiles": "NC(=O)Cn1c(CN2CCN(S(=O)(=O)c3cc4ccc(Cl)cc4s3)CC2=O)cc2cnccc21", "values": [
      {"measurement": "Ki", "setting": "Coagulation factor X", "value": 8, "unit": "nM"},
      {"measurement": "Absorption", "setting": "Caco-2", "value": 7, "unit": "%"},
      {"measurement": "Ki", "setting": "Serine protease 1", "value": "> 2900", "unit": "nM"},
      {"measurement": "Ki", "setting": "Prothrombin", "value": "> 3900", "unit": "nM"}
    ]},
    {"smiles": "O=C1CN(S(=O)(=O)c2cc3ccc(Cl)nc3s2)CCN1Cc1cc2c[nH]ccc-2n1", "values": [
      {"measurement": "Ki", "setting": "Coagulation factor X", "value": 4, "unit": "nM"}
    ]},
    {"smiles": "O=C(O)Cn1c(CN2CCN(S(=O)(=O)c3cc4ccc(Cl)cc4s3)CC2=O)cc2cnccc21", "values": [
      {"measurement": "Ki", "setting": "Coagulation factor X", "value": 154, "unit": "nM"},
      {"measurement": "Ki", "setting": "Serine protease 1", "value": "> 2900", "unit": "nM"},
      {"measurement": "Ki", "setting": "Prothrombin", "value": "> 3900", "unit": "nM"}
    ]},
    {"smiles": "O=C1CN(S(=O)(=O)c2cc3ccc(Cl)cc3s2)CCN1Cc1nc2cc[nH]cc-2n1", "values": [
      {"measurement": "pKa", "setting": "[1]", "value": 6.1},
      {"measurement": "Ki", "setting": "Coagulation factor X", "value": "> 1200", "unit": "nM"},
      {"measurement": "Ki", "setting": "Serine protease 1", "value": "> 2900", "unit": "nM"},
      {"measurement": "Ki", "setting": "Prothrombin", "value": "> 3900", "unit": "nM"}
    ]},
    {"smiles": "O=C1CN(S(=O)(=O)c2cc3cccnc3s2)CCN1Cc1cc2c[nH]ccc-2n1", "values": [
      {"measurement": "Ki", "setting": "Coagulation factor X", "value": "> 1200", "unit": "nM"}
    ]},
    {"smiles": "O=C1CN(S(=O)(=O)c2cc3ccc(Cl)cc3s2)CCN1Cc1cc2c[nH]ccc-2n1", "values": [
      {"measurement": "half-life", "setting": "[2]", "value": 36, "unit": "min"},
      {"measurement": "Concentration", "setting": "Homo sapiens", "value": 2, "unit": "µM"},
      {"measurement": "bioavailability", "setting": "[3]", "value": 99, "unit": "%"},
      {"measurement": "Absorption", "setting": "Caco-2", "value": 6, "unit": "%"},
      {"measurement": "Ki", "setting": "Serine protease 1", "value": "> 2900", "unit": "nM"},
      {"measurement": "Concentration", "setting": "Canis familiaris", "value": 5, "unit": "µM"},
      {"measurement": "pKa", "setting": "[4]", "value": 8.3},
      {"measurement": "Cmax", "setting": "[5]", "value": 658, "unit": "nM"},
      {"measurement": "Ki", "setting": "Prothrombin", "value": 2900, "unit": "nM"}
    ]},
    {"smiles": "O=C1CN(S(=O)(=O)c2cc3ncc(Cl)cc3s2)CCN1Cc1cc2c[nH]ccc-2n1", "values": [
      {"measurement": "Ki", "setting": "Coagulation factor X", "value": 1200, "unit": "nM"}
    ]},
    {"smiles": "O=C1CN(S(=O)(=O)c2ccc(-c3ccc(Cl)s3)s2)CCN1Cc1cc2c[nH]ccc-2n1", "values": [
      {"measurement": "Ki", "setting": "Coagulation factor X", "value": 23, "unit": "nM"}
    ]},
    {"smiles": "COc1cc(/C=C/S(=O)(=O)N2CCN(Cc3cc4c[nH]ccc-4n3)C(=O)C2)sc1Cl", "values": [
      {"measurement": "Ki", "setting": "Coagulation factor X", "value": "> 1200", "unit": "nM"}
    ]},
    {"smiles": "O=C1CN(S(=O)(=O)c2cc3ccccc3s2)CCN1Cc1cc2c[nH]ccc-2n1", "values": [
      {"measurement": "Ki", "setting": "Coagulation factor X", "value": 959, "unit": "nM"}
    ]},
    {"smiles": "O=C1CN(S(=O)(=O)c2cc3ccc(Cl)cc3s2)CCN1Cc1cc2c[n+]([O-])ccc2[nH]1", "values": [
      {"measurement": "Ki", "setting": "Coagulation factor X", "value": 38, "unit": "nM"},
      {"measurement": "Ki", "setting": "Serine protease 1", "value": "> 2900", "unit": "nM"},
      {"measurement": "Ki", "setting": "Prothrombin", "value": "> 3900", "unit": "nM"}
    ]},
    {"smiles": "O=C1CN(S(=O)(=O)/C=C/c2ccc(Cl)s2)CCN1Cc1cc2c[nH]ccc-2n1", "values": [
      {"measurement": "half-life", "setting": "[6]", "value": 52, "unit": "min"},
      {"measurement": "Concentration", "setting": "Homo sapiens", "value": 0.59, "unit": "µM"},
      {"measurement": "Cmax", "setting": "[7]", "value": 1640, "unit": "nM"},
      {"measurement": "Concentration", "setting": "Canis familiaris", "value": 2.2, "unit": "µM"},
      {"measurement": "bioavailability", "setting": "[8]", "value": 97, "unit": "%"}
    ]},
    {"smiles": "Nc1[nH]ccc2nc(CN3CCN(S(=O)(=O)c4cc5ccc(Cl)cc5s4)CC3=O)cc1-2", "values": [
      {"measurement": "pKa", "setting": "[1]", "value": 9.3},
      {"measurement": "Ki", "setting": "Serine protease 1", "value": "> 2900", "unit": "nM"},
      {"measurement": "Ki", "setting": "Prothrombin", "value": "> 3900", "unit": "nM"}
    ]},
    {"smiles": "O=C1CN(S(=O)(=O)c2cc3ccc(Cl)cc3s2)CCN1Cc1cc2cnccc2n1CCO", "values": [
      {"measurement": "half-life", "setting": "[2]", "value": 139, "unit": "min"},
      {"measurement": "bioavailability", "setting": "[3]", "value": 11, "unit": "%"},
      {"measurement": "Cmax", "setting": "[5]", "value": 783, "unit": "nM"}
    ]},
    {"smiles": "O=C1CN(S(=O)(=O)c2cc3ccc(Cl)cc3s2)CCN1Cc1cc2cc[nH]cc-2n1", "values": [
      {"measurement": "pKa", "setting": "[1]", "value": 8},
      {"measurement": "Ki", "setting": "Coagulation factor X", "value": 45, "unit": "nM"},
      {"measurement": "Ki", "setting": "Serine protease 1", "value": "> 2900", "unit": "nM"},
      {"measurement": "Ki", "setting": "Prothrombin", "value": 3900, "unit": "nM"}
    ]},
    {"smiles": "O=C1CN(S(=O)(=O)c2ccc(-c3ccc(Cl)cc3)cc2)CCN1Cc1cc2c[nH]ccc-2n1", "values": [
      {"measurement": "Ki", "setting": "Coagulation factor X", "value": "> 1200", "unit": "nM"}
    ]},
    {"smiles": "O=C1CN(S(=O)(=O)c2cc3ccc(Cl)cc3s2)CCN1Cc1cc2c(O)[nH]ccc-2n1", "values": [
      {"measurement": "Ki", "setting": "Coagulation factor X", "value": "> 1200", "unit": "nM"},
      {"measurement": "Ki", "setting": "Serine protease 1", "value": "> 2900", "unit": "nM"},
      {"measurement": "Ki", "setting": "Prothrombin", "value": "> 3900", "unit": "nM"}
    ]},
    {"smiles": "O=C1CN(S(=O)(=O)c2cc3ccc(Br)cc3s2)CCN1Cc1cc2c[nH]ccc-2n1", "values": [
      {"measurement": "Ki", "setting": "Coagulation factor X", "value": 3, "unit": "nM"}
    ]},
    {"smiles": "O=C1CN(S(=O)(=O)CCc2ccc(Cl)s2)CCN1Cc1cc2c[nH]ccc-2n1", "values": [
      {"measurement": "Ki", "setting": "Coagulation factor X", "value": 128, "unit": "nM"}
    ]},
    {"smiles": "O=C1CN(S(=O)(=O)c2cc3ncccc3s2)CCN1Cc1cc2c[nH]ccc-2n1", "values": [
      {"measurement": "Ki", "setting": "Coagulation factor X", "value": "> 1200", "unit": "nM"}
    ]},
    {"smiles": "COC(=O)Cn1c(CN2CCN(S(=O)(=O)c3cc4ccc(Cl)cc4s3)CC2=O)cc2cnccc21", "values": [
      {"measurement": "Ki", "setting": "Coagulation factor X", "value": 18, "unit": "nM"},
      {"measurement": "Absorption", "setting": "Caco-2", "value": 47.6, "unit": "%"},
      {"measurement": "Ki", "setting": "Serine protease 1", "value": "> 2900", "unit": "nM"},
      {"measurement": "Ki", "setting": "Prothrombin", "value": "> 3900", "unit": "nM"}
    ]},
    {"smiles": "O=C1CN(S(=O)(=O)c2cc3ccc(Cl)cc3s2)CCN1Cc1cc2cnccc2o1", "values": [
      {"measurement": "pKa", "setting": "[1]", "value": 5.8},
      {"measurement": "Ki", "setting": "Coagulation factor X", "value": 1220, "unit": "nM"},
      {"measurement": "Ki", "setting": "Serine protease 1", "value": "> 2900", "unit": "nM"},
      {"measurement": "Ki", "setting": "Prothrombin", "value": "> 3900", "unit": "nM"}
    ]}
  ]
}
